Results: the NIST ThermoML archive (doi:10.1016/j.jct.2012.08.030)
Numbers after ± are expanded uncertainties.

Legend:
[1] = xn = mol fraction of the nth substance listed; settings: 313.15 K, 101.3 kPa, Liquid; for speed of sound: Sing-around technique in a fixed-path interferometer; for mass density: Vibrating tube method
[2] = refractive index (Na D-line) (dimensionless); xn = mol fraction of the nth substance listed; settings: 101.3 kPa, Liquid, Standard Abbe refractometry

CCCCn1cc[n+](C)c1.COS(=O)(=O)[O-] [1-butyl-3-methylimidazolium methyl sulfate] + CO
[1]
Settings | mass density [kg/m3] | speed of sound [m/s]
x1 = 0.0422 | 857.888 ± 0.35 | 1146.2 ± 0.65
x1 = 0.094 | 929.815 ± 0.24 | 1230.8 ± 0.74
x1 = 0.1857 | 1016.06 ± 0.2 | 1343.9 ± 0.94
x1 = 0.2858 | 1073.54 ± 0.28 | 1424.6 ± 1.2
x1 = 0.3729 | 1107.37 ± 0.42 | 1473.6 ± 1.4
x1 = 0.4772 | 1135.72 ± 0.65 | 1515.7 ± 1.7
x1 = 0.5769 | 1155.64 ± 0.94 | 1545.9 ± 1.9
x1 = 0.6775 | 1170.94 ± 1.3 | 1569.2 ± 2.2
x1 = 0.7947 | 1184.65 ± 1.8 | 1590.3 ± 2.5
x1 = 0.8923 | 1193.93 ± 2.2 | 1605.1 ± 2.8
x1 = 0.9526 | 1198.87 ± 2.5 | 1612.9 ± 3
x1 = 1 | 1202.01 ± 2.8 | 1617.9 ± 3.1

refractive index, [2]
Settings | 298.15 K | 303.15 K | 308.15 K | 313.15 K
x1 = 0.0422 | 1.35708 ± 0.00031 | 1.35523 ± 0.00031 | 1.35331 ± 0.00031 | 1.35141 ± 0.00031
x1 = 0.094 | 1.38271 ± 0.00032 | 1.38094 ± 0.00032 | 1.37913 ± 0.00032 | 1.37735 ± 0.00032
x1 = 0.1857 | 1.41321 ± 0.00034 | 1.41156 ± 0.00034 | 1.4099 ± 0.00034 | 1.40827 ± 0.00034
x1 = 0.2858 | 1.43348 ± 0.00036 | 1.43193 ± 0.00036 | 1.43036 ± 0.00036 | 1.4288 ± 0.00036
x1 = 0.3729 | 1.44537 ± 0.00039 | 1.44388 ± 0.00039 | 1.44239 ± 0.00039 | 1.4409 ± 0.00039
x1 = 0.4772 | 1.45531 ± 0.00043 | 1.45387 ± 0.00043 | 1.45242 ± 0.00043 | 1.45097 ± 0.00043
x1 = 0.5769 | 1.46226 ± 0.00047 | 1.46087 ± 0.00047 | 1.45945 ± 0.00047 | 1.45804 ± 0.00047
x1 = 0.6775 | 1.46761 ± 0.00052 | 1.46624 ± 0.00052 | 1.46485 ± 0.00052 | 1.46348 ± 0.00052
x1 = 0.7947 | 1.47248 ± 0.00057 | 1.47111 ± 0.00057 | 1.46972 ± 0.00057 | 1.46836 ± 0.00057
x1 = 0.8923 | 1.47576 ± 0.00062 | 1.4744 ± 0.00062 | 1.47303 ± 0.00062 | 1.47168 ± 0.00062
x1 = 0.9526 | 1.47744 ± 0.00065 | 1.47608 ± 0.00065 | 1.47475 ± 0.00065 | 1.47338 ± 0.00065
x1 = 1 | 1.47824 ± 0.00068 | 1.47704 ± 0.00068 | 1.47577 ± 0.00068 | 1.47443 ± 0.00068
